Among the data in patent US8497293B2, “Haloalkylsubstituted aryloxyalkylimidazolines for use as pesticides” (Syngenta Crop Protection LLC, priority 2007, dated 2013) are melting point and mortality values, retold here.

Structures can show the parent of a compound that is named as a salt. Where two headings read alike, the source gives them in different places.

The test system of data set [1] is Myzus persicae (Green Peach Aphid). The data set is described as follows: Myzus persicae sunflower leaf disc spray test. In kind it is in vivo. To be noted: foliar, 144 h, read-out: control (mortality). How it is done: Sunflower leaf discs were placed on agar in a 24-well microtiter plate and sprayed with test solutions at an application rate of 200 ppm. After drying, the leaf discs were infested with an aphid population of mixed ages. After an incubation period of 6 DAT, samples were checked for mortality. The following compounds gave 100% control: 1.001, 1.003, 1.004, 1.005, 1.006, 1.007, 1.008, 1.016, 1.017, 1.019, 1.021, 1.023 and 1.024. The following compounds gave 80% control: 1.002 and 1.026. The following compounds gave 50% control: 1.010, 1.018, 1.025 and 1.027.

For data set [2], the system named is Tetranychus urticae (Two-Spotted Spider Mite). Description: Tetranychus urticae bean leaf disc spray test. In kind it is in vivo. To be noted: foliar, 192 h, read-out: control (egg mortality, larval mortality, adult mortality). The text has this: Bean leaf discs on agar in 24-well microtiter plates wer sprayed with test solutions at an application rate of 200 ppm. After drying, the leaf discs are infested with mite populations of mixed ages. 8 days later, discs are checked for egg mortality, larval mortality, and adult mortality. The following compounds gave 100% control: 1.001, 1.003, 1.004, 1.005, 1.007, 1.016, 1.021, 1.022, 1.023, and 1.024. The following compounds gave 80% control: 1.019, 1.025 and 1.027.

The test system of data set [3] is Myzus persicae (Green Peach Aphid). Description: Myzus persicae pea seedling root (systemic) test. It counts as in vivo. To be noted: 144 h, read-out: control (mortality). The text has this: Roots of pea seedlings, infested with an aphid population of mixed ages, were placed directly in the test solutions of 24 ppm. 6 days after introduction, samples were checked for mortality. The following compounds gave 100% control: 1.001, 1.003, 1.016, 1.021, 1.022 and 1.024. The following compounds gave 80% control: 1.005, 1.019, 1.020 and 1.023.

Data set [4] concerns Heliothis virescens (Tobacco Budworm). The data set is described as follows: Heliothis virescens egg/larval test on artificial diet. As to conditions: read-out: control (egg mortality, larval mortality, growth regulation). In kind it is in vivo. As to the method:
Eggs (0-24 h old) were placed in 24-well microtiter plate on artificial diet and treated with test solutions at an application rate of 200 ppm by pipetting. After an incubation period of 4 days, samples were checked for egg mortality, larval mortality, and growth regulation. The following compounds gave 100% control: 1.016, 1.020 and 1.024. The following compounds gave 80% control: 1.001, 1.003 and 1.022. The following compounds gave 50% control: 1.004, 1.007, and 1.014.

Setting [5] is: 200 ppm by pipetting, eggs 0-24 h old on artificial diet, 4 days incubation.

`CCc1c(OC(CC)C2=NCCN2)cccc1C(F)(F)F` (stereo not shown) (as salt: oxalate): the melting point (in general, the temperature, or range, at which the solid turns liquid) was in the range of 185 to 187 °C.
`CCC(Oc1cccc(C(F)F)c1C)C1=NCCN1` (stereo not shown) [Compound 1.023]: the mortality at 200 ppm in data set [1] and in data set [2] was 100% each time. Also, the mortality – broadly, the share of the test organisms that died – at 24 ppm in data set [3] was found to be 80%.
Turning to `CCCC(Oc1cccc(CF)c1C)C1=NCCN1` (stereo not shown) [Compound 1.024], the mortality at 200 ppm in data set [1], in data set [4] (setting [5]) and in data set [2] was 100% throughout. Moreover, the mortality at 24 ppm in data set [3] is 100%.
Take `CCCC(Oc1cccc(C(F)F)c1C)C1=NCCN1` (stereo not shown) [Compound 1.016]: the mortality at 200 ppm in data set [1], in data set [4] (setting [5]) and in data set [2] was 100% in each case. Besides, in data set [3], the mortality at 24 ppm was found to be 100%.
For the compound `CCC(Oc1cccc(CF)c1C)C1=NCCN1` (stereo not shown) [Compound 1.022], the mortality at 200 ppm in data set [4] was 80%; in data set [2], 100%. Moreover, in data set [3], the mortality at 24 ppm came to 100%.
On to `CCCCC(Oc1cccc(C(F)F)c1C)C1=NCCN1` (stereo not shown) [Compound 1.019], for which the mortality at 200 ppm in data set [1] came out at 100%; in data set [2], 80%. Further, in data set [3], the mortality at 24 ppm was 80%.
As for `CCCC(Oc1cccc(C(F)(F)F)c1SC)C1=NCCN1` (stereo not shown) (as salt: maleate), the melting point is 90 to 109 °C.
In the case of `Cc1c(OC(C2=NCCN2)C(C)C)cccc1C(F)(F)F` (stereo not shown) [Compound 1.005], the mortality at 200 ppm in data set [1] and in data set [2] was 100% in each case. In addition, in data set [3], the mortality at 24 ppm is 80%.
For the compound `Cc1c(OC(C2=NCCN2)C(C)C)cccc1C(F)F` (stereo not shown) [Compound 1.021], the mortality at 200 ppm in data set [1] and in data set [2] was 100% throughout. Moreover, the mortality at 24 ppm in data set [3] came to 100%.
For `CCCC(Oc1cccc(C(F)(F)F)c1S(C)(=O)=O)C1=NCCN1` (stereo not shown), the melting point is 112 to 120 °C.
On to `CCC(Oc1cccc(C(F)(F)F)c1C)C1=NCCN1` (stereo not shown) [Compound 1.001, 2-[1-(2-methyl-3-trifluoromethyl-phenoxy)-propyl]-4,5-dihydro-1H-imidazole], for which the mortality at 200 ppm stood at 100% in data set [1], 80% in data set [4] and 100% in data set [2]. Moreover, in data set [3], the mortality at 24 ppm was 100%.
With `CCCCC(Oc1cccc(C(F)(F)F)c1C)C1=NCCN1` (stereo not shown) [Compound 1.004], the mortality at 200 ppm turned out to be 100% in data set [1], 50% in data set [4] (setting [5]) and 100% in data set [2].
For the compound `CCCCC(Oc1cccc(CF)c1C)C1=NCCN1` (stereo not shown) [Compound 1.020], the mortality at 200 ppm in data set [4] (setting [5]) was 100%. Further, in data set [3], the mortality at 24 ppm came out at 80%.
For `CCC(Oc1cccc(C(F)(F)F)c1CO)C1=NCCN1` (stereo not shown) (as salt: chloride), the melting point lay within 150 to 157 °C.
Turning to `CCC(Oc1cccc(C(F)(F)F)c1C(F)F)C1=NCCN1` (stereo not shown) [Compound 1.002], the mortality at 200 ppm in data set [1] stood at 80%.
Regarding `CCC(Oc1cccc(C(F)F)c1C1CC1)C1=NCCN1` (stereo not shown) [Compound 1.017], the mortality at 200 ppm in data set [1] came out at 100%.
As to `CCCC(Oc1cccc(C(F)(F)F)c1C)C1=NCCN1` (stereo not shown) [Compound 1.003], the mortality at 200 ppm in data set [1] turned out to be 100%; in data set [4] (setting [5]), 80%; in data set [2] it was 100%. Besides, the mortality at 24 ppm in data set [3] is 100%.
As to `CCC(Oc1cccc(C(F)(F)F)c1C(F)(F)F)C1=NCCN1` (stereo not shown), the melting point lay within 127 to 133 °C.
